According to the supplement of paper PMC10331698:
± gives the standard deviation of the averaged measurements.

Legend:
Experiment in all cases: level (log10 ratio to DMSO vehicle control); higher = higher biomarker level / cell amount than vehicle control
Settings in all cases: in DMSO
[1] = compound: NC(=O)C(F)(F)C(F)(F)C(F)(F)C(F)F
Method: (§1)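 BioMAP Diversity Plus panel of 12 human primary cell co-culture systems (3C, 4H, LPS, SAg, BT, BF4T, BE3C, CASM3C, HDF3CGF, KF3CT, MyoF, Mphg). Compounds were added 1 h before stimulation and left for 24 h (MyoF 48 h; BT 72 h for soluble read-outs or 6 d for IgG). Biomarkers were read by ELISA, cytotoxicity by SRB, PBMC viability and proliferation by Alamar Blue. Each well value was divided by the mean of 8 DMSO control wells on the same plate and log10 transformed; duplicate blinded samples were tested at 4 concentrations.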

[2] = compound: FC(F)(F)C(F)(F)CNCC(F)(F)C(F)(F)F [Bis(1H,1H-perfluoropropyl)amine]
Method: as §1

[3] = compound: FC(F)(F)C(F)(F)C(F)(F)C(F)(F)C(F)(F)C(F)(F)CC1CO1 [3-(Perfluorohexyl)-1,2-epoxypropane]
Method: as §1

[4] = compound: NC(=O)C(F)(F)C(F)(F)C(F)(F)C(F)(F)C(N)=O [Octafluoroadipamide]
Method: as §1

[5] = compound: O=S(=O)(Cl)C(F)(F)C(F)(F)C(F)(F)C(F)(F)C(F)(F)C(F)(F)C(F)(F)C(F)(F)F [Perfluoro-1-octanesulfonyl chloride]
Method: as §1

[6] = compound: O=C(O)C(F)(F)C(F)(F)C(F)(F)C(F)(F)C(F)(F)C(F)(F)C(F)(F)C(F)(F)C(F)(F)C(F)F [11-H-Perfluoroundecanoic acid]
Method: as §1

[7] = compound: FC(F)(F)C(F)(F)C(F)(F)CI [Heptafluorobutyl iodide]
Method: as §1

Test System	level (log10) ([1]; 6700 nM)	level (log10) ([1]; 20000 nM)	level (log10) ([1]; 60000 nM)	level (log10) ([2]; 6700 nM)	level (log10) ([2]; 20000 nM)	level (log10) ([2]; 60000 nM)	level (log10) ([3]; 6700 nM)	level (log10) ([3]; 20000 nM)	level (log10) ([3]; 60000 nM)	level (log10) ([4]; 6700 nM)	level (log10) ([4]; 20000 nM)	level (log10) ([4]; 60000 nM)	level (log10) ([5]; 6700 nM)	level (log10) ([5]; 20000 nM)	level (log10) ([5]; 60000 nM)	level (log10) ([6]; 6700 nM)	level (log10) ([6]; 20000 nM)	level (log10) ([7]; 6700 nM)	level (log10) ([7]; 20000 nM)	level (log10) ([7]; 60000 nM)
SAg:CD40	-0.023 ± 0.0028	-0.0155 ± 0.019	-0.02 ± 0.028	0.011 ± 0.017	0.0025 ± 0.0064	-0.003 ± 0.02	-0.008 ± 0.013	-0.0135 ± 0.012	-0.018 ± 0.013	-0.002 ± 0.0028	-0.001 ± 0.0014	-0.001 ± 0.024	0.002 ± 0.0071	-0.015 ± 0.0028	-0.078 ± 0.034	-0.024	-0.0355 ± 0.012	-0.027 ± 0.011	-0.0445 ± 0.016	-0.024 ± 0.016
SAg:CD62E/E-Selectin	0.005 ± 0.04	-0.0135 ± 0.039	0.0155 ± 0.036	0.001 ± 0.013	-0.0075 ± 0.016	0.01 ± 0.031	-0.008 ± 0.018	0.0005 ± 0.0035	-0.012 ± 0.027	0.0015 ± 0.0078	0.0065 ± 0.022	0.0185 ± 0.028	-0.0055 ± 0.013	0.0155 ± 0.019	0.127 ± 0.016	0.007 ± 0.021	0.0035 ± 0.005	-0.0225 ± 0.026	0.0065 ± 0.00071	-0.025 ± 0.014
SAg:CD69	0.025 ± 0.0085	0.0175 ± 0.005	0.0495 ± 0.026	0.001 ± 0.0085	-0.0075 ± 0.018	-0.0125 ± 0.00071	0.013 ± 0.0042	0.011 ± 0.011	0.0035 ± 0.00071	-0.0095 ± 0.011	-0.013 ± 0.018	0.002 ± 0.013	-0.011 ± 0.0099	-0.049 ± 0.04	-0.0795 ± 0.049	-0.01 ± 0.028	-0.0235 ± 0.047	-0.0425 ± 0.043	-0.045 ± 0.03	-0.032 ± 0.037
lMphg:CCL3/MIP-1alpha	-0.039 ± 0.0099	-0.0295 ± 0.018	-0.006 ± 0.0028	0.039 ± 0.016	0.002 ± 0.014	-0.009 ± 0.0085	-0.0345 ± 0.035	-0.029 ± 0.034	-0.009 ± 0.021	0.0425 ± 0.032	0.019 ± 0.047	0.0295 ± 0.013	0.038 ± 0.03	0.004 ± 0.041	0.025 ± 0.018	-0.023 ± 0.023	-0.027 ± 0.0057	0.023 ± 0.079	0.0315 ± 0.11	0.06 ± 0.045
lMphg:CD62E/E-Selectin	-0.011 ± 0.038	-0.021 ± 0.076	-0.037 ± 0.078	0.0005 ± 0.0035	-0.0185 ± 0.0078	0.002 ± 0.02	-0.0155 ± 0.00071	0.0055 ± 0.016	-0.0045 ± 0.061	0.0095 ± 0.00071	0.002 ± 0.0042	0.007 ± 0.016	-0.0085 ± 0.0035	-0.0165 ± 0.037	0.073 ± 0.014	-0.025 ± 0.023	-0.028 ± 0.034	-0.0065 ± 0.011	-0.0065 ± 0.005	0.0085 ± 0.019
